SMILES strings stand for the structures.

In the experiment the test system is Plasmodium falciparum. Put plainly: GSK_TCMDC: Inhibition of Plasmodium falciparum 3D7 in whole erythrocytes, using parasite LDH activity as an index of growth. The format is functional, organism-based. To be noted: Plasmodium falciparum, 3D7.

For `CC(C)CNCc1cccc(-c2cccc(CN(C(=O)c3cccs3)C3CCN(Cc4ccccc4)CC3)c2)c1`, the XC50 was 896 nM.

`CS(=O)(=O)c1ccc(CNCc2ccc(-c3ccc(-c4nc5cc(F)ccc5[nH]4)s3)cc2)cc1` came in with an XC50 of 268 nM.

Regarding `CS(=O)(=O)c1ccc(CCNCc2ccc(-c3ccc(CNC4Cc5ccccc5C4)cc3)nc2)cc1`, the XC50 worked out at 757 nM.

`Cc1cccc(-n2c(=O)c3c4c(sc3n3c(SCCC(C)C)nnc23)CCCC4)c1` displayed an XC50 of 763 nM.

The molecule `c1ccc(C2CCN(Cc3ccc(-c4c[nH]c5nc(NC6CCCC6)ncc45)cc3)CC2)cc1` had an XC50 of 1010 nM.

Molecule `COc1ccc(-c2cnc3ccc(NCCCO)nn23)cc1OC` returned an XC50 of 672 nM.

`Cc1nc(N)nc(N)c1C#CC1CCCC1` registered an XC50 of 768 nM.

Turning to `Cc1cc(C)nc(-n2[nH]c(C)c(Cc3ccc(C(C)(C)C)cc3)c2=O)n1`, the XC50 stood at 1010 nM.

Molecule `COc1ccc2nccc([C@@H](O)CN3CCC(NC(=O)/C=C/c4cccc(NC(C)=O)c4)CC3)c2c1` showed an XC50 of 963 nM.

`COCCCNC(=O)c1ccc(O)c(-c2cc(Cl)cc(Cl)c2)c1` showed an XC50 of 923 nM.

For the molecule `Cc1cccc2c(CON3C(N)=NC(N)=NC3(C)C)cccc12`, the XC50 came out at 3.2 nM.

`O=C1CCCN1CCCNCc1ccc(-c2ccc(-c3nc4cc(C(F)(F)F)ccc4[nH]3)cc2)cc1`: the XC50 was 583 nM.

In the case of `Fc1cccc2sc(Nc3nc(-c4ccccn4)cs3)nc12`, the XC50 was determined as 906 nM.

With `COc1ccc(-c2nc3cccnc3n2CC(=O)Nc2cc(Cl)c(Cl)cc2Cl)c(OC)c1`, the XC50 came to 722 nM.

The molecule `CCOC(=O)c1ccc(NC(=O)N[C@@H](Cc2ccccc2)C(=O)NC2CCN(Cc3ccc(O)cc3)C2)cc1` (stereo partly drawn) came in with an XC50 of 628 nM.

In turn, `CCCCN(CCCC)CCC(O)C(=Cc1ccc(Cl)cc1Cl)c1ccc(C(F)(F)F)cc1N` (stereo not drawn) yielded an XC50 of 193 nM.

As to `CCCNCc1ccc(-c2ccc(CN(Cc3cnc(C)cn3)C(=O)CC#N)cc2)nc1`, the XC50 was determined as 1220 nM.

`O=C(Nc1ccc(N2CCN(c3ncccc3C(F)(F)F)CC2)nc1)c1cccs1` had an XC50 of 1190 nM.

As to `Cc1cccc2nc(-c3cccc(-c4ccc(NC(=O)Cc5c[nH]cn5)cc4)c3)[nH]c12`, the XC50 came to 688 nM.

With `CC[C@H]1CN2CC[C@@H]1C[C@H]2[C@H](O)c1cc(N2CCC(O)(c3ccc(Cl)cc3)CC2)nc2ccc(OC)cc12`, the XC50 turned out to be 71 nM.

Molecule `CC(C)c1ccc(CN2CCCCC(NC(=O)c3cc(-c4ccccc4Cl)cs3)C2)cc1` (stereo not drawn) had an XC50 of 1120 nM.

As to `Cc1cccc2nc(-c3ccc(-c4ccc(CN5CCN(C6CCN(C)CC6)CC5)cc4)cc3)[nH]c12`, the XC50 is 100 nM.

Take `O=C(/C=C/c1ccc(Cl)c(Cl)c1)NCCCCCN1CCC(NC(=O)Nc2cc(F)ccc2F)CC1`: the XC50 worked out at 697 nM.

In turn, `Nc1ccc(-c2nc3c(ccc4ccccc43)[nH]2)cc1` registered an XC50 of 941 nM.

For the molecule `CC1(C)N=C(N)N=C(N)N1OCc1cccc2c1ccc1ccccc12`, the XC50 amounted to 3.2 nM.

As for `COc1cc2ncnc(Nc3ccc(OCc4ccccc4)c(OCc4ccccc4)c3)c2cc1OC`, the XC50 turned out to be 738 nM.

`c1ccc(CSC2=NNC(c3ccccn3)S2)cc1` (stereo not drawn) gave an XC50 of 1480 nM.

Molecule `N[C@@H](CCN1CCC(c2cccc(O)c2)CC1)Cc1ccc(F)c(F)c1` yielded an XC50 of 1110 nM.

`Cc1cc2nc(-c3ccc(SCC(=O)Nc4ccc5c(c4)OCCO5)nc3)[nH]c2cc1C` had an XC50 of 989 nM.

In turn, `Cc1[nH]c2ccc(-c3ccc(N(C)C)cc3)cc2c(=O)c1Cl` gave an XC50 of 720 nM.

Turning to `CCCCN(CCCC)CCCCNc1c2ccc(Cl)cc2nc2ccc(OC)cc12`, the XC50 was 175 nM.

`CS(=O)(=O)CCNCc1cccc(-c2ccc3c(Nc4ccc(Oc5cccnc5)cc4)ccnc3c2)c1` displayed an XC50 of 142 nM.

In the case of `CN1CCC(N2CCN(Cc3ccc(-c4cccc(-c5nc6ccccc6[nH]5)c4)cc3)CC2)CC1`, the XC50 was found to be 145 nM.

The molecule `NC(=O)c1ccccc1Nc1nc(Nc2ccc(N3CCOCC3)cc2)ncc1[N+](=O)[O-]` showed an XC50 of 881 nM.

Molecule `O=c1cc(NCCCNCc2cc(Cl)cc(Cl)c2OCc2ccc(Cl)cc2)[nH]c2ccccc12` showed an XC50 of 693 nM.

In turn, `CCCSc1nc2c(c(=O)n1CCc1ccccc1)C1(CCCC1)Cc1ccccc1-2` came in with an XC50 of 702 nM.

Turning to `Cn1c(NC(=O)C2CCC(CNC(=O)c3ccc(O)c(-c4ccc(Cl)c(Cl)c4)c3)CC2)nc2ccccc21` (stereo not drawn), the XC50 was found to be 654 nM.

For the molecule `CN1CCC(N(Cc2ccc(-c3ccc(Cl)cc3)cc2)C(=O)Cn2c(CCc3cccc(F)c3F)cc(=O)c3ccccc32)CC1`, the XC50 is 865 nM.

`CCOC(=O)c1ccc(NC(=O)Nc2cccc(-c3cccc(-c4nc5cccc(C)c5[nH]4)c3)c2)cc1` displayed an XC50 of 106 nM.

For `Cc1cc(N(C)C)nc(Nc2ccc(NC(=O)Nc3ccccc3)cc2)n1`, the XC50 was found to be 134 nM.

For the molecule `CSc1cccc(Nc2nc3ccc(S(=O)(=O)NCC(C)C)cc3n2C(C)C(C)C)c1` (stereo not drawn), the XC50 came to 824 nM.

`O=C(Nc1cccc([N+](=O)[O-])c1)Nc1cccc(C(F)(F)F)c1` displayed an XC50 of 767 nM.

As to `CC(C)(C)N1CCC(N(Cc2ccc(-c3ccc(C(F)(F)F)cc3)cc2)C(=O)Cn2c(CCc3cccc(F)c3F)cc(=O)c3cccnc32)CC1`, the XC50 is 705 nM.

Regarding `Cc1[nH]c(C)c(-c2ccc(OCCn3cnc(Cl)c3Cl)cc2)c(=O)c1Br`, the XC50 was determined as 853 nM.

Take `COc1cccc(-c2cnc(N)c(-c3nc4ccc(F)cc4[nH]3)c2)c1`: the XC50 came out at 850 nM.

On to `Clc1ccc(-c2csc3ncnc(Cl)c23)cc1`, for which the XC50 is 460 nM.

As for `O=C1Nc2cccc3c2C1(CCCCN1CCC(c2c(-c4ccccc4)[nH]c4ccccc24)CC1)CCC3` (stereo not drawn), the XC50 worked out at 1200 nM.

`CCOC(=O)c1ccc(NC(=O)Nc2ccc(-c3ccc(-c4nc5ccccc5[nH]4)cc3)cc2)cc1` yielded an XC50 of 22.3 nM.

The molecule `CC(=O)Nc1ncc(C(=O)Nc2ccc(-c3cccc(-c4nc5cc(C(F)(F)F)ccc5[nH]4)c3)cc2)s1` registered an XC50 of 260 nM.

For the molecule `Fc1ccc(-c2oc(C3CCN(CCc4ccc(-c5noc(=S)[nH]5)cc4)CC3)nc2COCC(F)(F)F)cc1`, the XC50 came to 418 nM.

For `Cc1cc(NC(=O)NCCN2CCC(NS(=O)(=O)c3cccc(Br)c3)C2)c2ccccc2n1` (stereo not drawn), the XC50 was found to be 606 nM.

With `CCOc1ccc(OCCCON2C(=N)N=C(N)NC2(C)C)cc1`, the XC50 turned out to be 3.2 nM.

Molecule `O=C(CSc1nccn1C1CCCC1)Nc1cc(C(F)(F)F)ccc1Cl` showed an XC50 of 382 nM.

For the molecule `CCOC(=O)N1NC(=O)N(c2ccccc2)C1(c1ccccc1)c1ccccc1`, the XC50 amounted to 697 nM.

As to `O=C(/C=C/c1cccc2c1OCO2)Nc1ccnc2ccncc12`, the XC50 was found to be 895 nM.

In the case of `Cc1ccccc1C1CCN(C2CCC(NC(=O)c3csc(-c4cccc(Cl)c4)n3)CC2)CC1` (stereo not drawn), the XC50 came to 1150 nM.

Regarding `CC(C)NCc1ccc(-c2ccc(-c3nc4cc(F)ccc4[nH]3)cc2)cc1`, the XC50 was determined as 213 nM.

`Cc1cccc(CN2CCCN(Cc3ccc(C(=O)Nc4ccc(C)c(F)c4)cc3)CC2)c1` returned an XC50 of 1060 nM.

The molecule `O=C(NCCN1CCCC1)c1cccc(Nc2nccc(Nc3ccc(Oc4ccccc4)cc3)n2)c1` returned an XC50 of 654 nM.

`O=c1ccc2ccc(O)c(O)c2o1` [DAPHNETIN] had an XC50 of 32.2 nM.

`COc1ccccc1CNC(=O)c1nn(-c2ccc(Cl)cc2)c(=O)c2ccccc12`: the XC50 is 294 nM.

The molecule `Cc1ccc(-n2nc(C)c3c2NC(=O)CSC3c2ccsc2)cc1` (stereo not drawn) yielded an XC50 of 1010 nM.

Consider `O=C(O)c1ccc(NC(=O)C2CC(=O)N(Cc3ccc(Cl)cc3)C(=Nc3ccc(Cl)cc3)S2)cc1` (stereo not drawn), for which the XC50 is 530 nM.

`CN(C)c1ccc(CN2CCC(CNC(=O)c3cc(-c4cccc(F)c4)cs3)C2)cc1` (stereo not drawn) gave an XC50 of 1020 nM.

In turn, `CNCCNCc1cccc(-c2ccc(-c3nc4cc(C(F)(F)F)ccc4[nH]3)cc2)c1` yielded an XC50 of 693 nM.

Turning to `COc1cccc(C(=O)Nc2nc3c(s2)CCN(Cc2ccccc2N2CCNCC2)CC3)c1`, the XC50 turned out to be 888 nM.

Turning to `Cc1cc2nc(-c3ccc(C(=O)NCc4cccc(C(F)(F)F)c4)cc3)[nH]c2cc1C`, the XC50 stood at 807 nM.

In turn, `Oc1cc2ccccc2cc1CNC1CCCCC1` showed an XC50 of 586 nM.

In turn, `O=c1cc(NCC2(CNCc3cn(Cc4ccccc4)c4ccccc34)CCCCC2)[nH]c2ccccc12` yielded an XC50 of 684 nM.

Turning to `FC(F)(F)c1cccc2c(NN=Cc3ccccc3)ccnc12`, the XC50 was found to be 624 nM.

Molecule `O=C(Nc1cccc(-c2nn3ccccc3c2-c2ccnc(Nc3cccc(C(F)(F)F)c3)n2)c1)c1c(F)cccc1F` yielded an XC50 of 627 nM.

Molecule `COc1ccc2ncc(F)c(CCN3CC[C@@H](CNCc4cc(C)c5c(c4)OCCO5)C3)c2n1` had an XC50 of 890 nM.

Take `CN1CCN(Cc2cccc(-c3ccc4c(Nc5ccc(Oc6cccnc6)cc5)ccnc4c3)c2)CC1`: the XC50 amounted to 192 nM.

`OCc1ccc(-c2cncc(Nc3ccc(F)c(Cl)c3)c2)cc1` gave an XC50 of 88.5 nM.

On to `Cc1cccc2nc(-c3ccc(-c4ccc(NC(=O)Nc5cccc(C#N)c5)cc4)s3)[nH]c12`, for which the XC50 came to 117 nM.

The molecule `COc1ccc(Nc2c3ccc(Cl)cc3nc3ccc(OC)cc23)cc1` had an XC50 of 441 nM.

Consider `c1cc(CNC2Cc3ccccc3C2)cc(-c2cnc(N3CCNCC3)nc2)c1`, for which the XC50 amounted to 943 nM.

In the case of `O=C(/C=C/c1ccc(Cl)c(Cl)c1)NCCCCCN1CCC(n2c(=O)[nH]c3ccccc32)CC1`, the XC50 worked out at 869 nM.

`O=[N+]([O-])c1ccc(/C=N/O)nc1` had an XC50 of 872 nM.

As for `CCCN1CCN(c2cc(S(=O)(=O)Nc3ccc(C(=O)NCc4cccc(C(F)(F)F)c4)cc3)ccc2OC)CC1`, the XC50 was determined as 1010 nM.

Consider `CCCCn1c(N)c(N(Cc2ccco2)C(=O)C=Cc2cc(OC)c3c(c2)OCCO3)c(O)nc1=O`, for which the XC50 came to 946 nM.

`N#Cc1cccc(NC(=O)Nc2ccc(-c3cccc(-c4nc5cc(F)ccc5[nH]4)c3)cc2)c1` came in with an XC50 of 275 nM.

`CN(C)C(=O)CC(=O)NCc1cccc(Cl)c1` had an XC50 of 711 nM.

`CCN(CC)CCNC(=O)c1ccc(NC(=O)c2ccc(-c3cc(NC(=O)CC4CCCC4)ccc3C)cc2)cc1` yielded an XC50 of 564 nM.

As for `CC(C)CC(=O)N1CCNC[C@@H]1C(=O)NCc1ccc(Cl)c(Cl)c1`, the XC50 was 950 nM.

`CN1CCN(c2ccc(Nc3ccnc4ccc(-c5ccccc5)cc34)cc2)CC1` displayed an XC50 of 92.9 nM.

For the molecule `COc1ccccc1Cc1c(C)nc2nc(N)nc(N)c2c1C`, the XC50 came to 569 nM.

For the molecule `CN1CCN(c2ccc(Cl)cc2NC(=O)C2COc3ccccc3O2)CC1` (stereo not drawn), the XC50 amounted to 810 nM.

The values are drawn from ChEMBL document CHEMBL1157539, “Thousands of chemical starting points for antimalarial lead identification” (Nature, 2010).
